Measurements published in ChEMBL document CHEMBL1146670, “Structure based design of a series of potent and selective non peptidic PTP-1B inhibitors” (Bioorg Med Chem Lett, 2004).

Legend:
[1] = molecular target: T1, Receptor-type tyrosine-protein phosphatase C (Homo sapiens, UniProt P08575); assay: Inhibitory activity against CD45 protein-tyrosine phosphatase
T1 sequence (P08575 whole entry): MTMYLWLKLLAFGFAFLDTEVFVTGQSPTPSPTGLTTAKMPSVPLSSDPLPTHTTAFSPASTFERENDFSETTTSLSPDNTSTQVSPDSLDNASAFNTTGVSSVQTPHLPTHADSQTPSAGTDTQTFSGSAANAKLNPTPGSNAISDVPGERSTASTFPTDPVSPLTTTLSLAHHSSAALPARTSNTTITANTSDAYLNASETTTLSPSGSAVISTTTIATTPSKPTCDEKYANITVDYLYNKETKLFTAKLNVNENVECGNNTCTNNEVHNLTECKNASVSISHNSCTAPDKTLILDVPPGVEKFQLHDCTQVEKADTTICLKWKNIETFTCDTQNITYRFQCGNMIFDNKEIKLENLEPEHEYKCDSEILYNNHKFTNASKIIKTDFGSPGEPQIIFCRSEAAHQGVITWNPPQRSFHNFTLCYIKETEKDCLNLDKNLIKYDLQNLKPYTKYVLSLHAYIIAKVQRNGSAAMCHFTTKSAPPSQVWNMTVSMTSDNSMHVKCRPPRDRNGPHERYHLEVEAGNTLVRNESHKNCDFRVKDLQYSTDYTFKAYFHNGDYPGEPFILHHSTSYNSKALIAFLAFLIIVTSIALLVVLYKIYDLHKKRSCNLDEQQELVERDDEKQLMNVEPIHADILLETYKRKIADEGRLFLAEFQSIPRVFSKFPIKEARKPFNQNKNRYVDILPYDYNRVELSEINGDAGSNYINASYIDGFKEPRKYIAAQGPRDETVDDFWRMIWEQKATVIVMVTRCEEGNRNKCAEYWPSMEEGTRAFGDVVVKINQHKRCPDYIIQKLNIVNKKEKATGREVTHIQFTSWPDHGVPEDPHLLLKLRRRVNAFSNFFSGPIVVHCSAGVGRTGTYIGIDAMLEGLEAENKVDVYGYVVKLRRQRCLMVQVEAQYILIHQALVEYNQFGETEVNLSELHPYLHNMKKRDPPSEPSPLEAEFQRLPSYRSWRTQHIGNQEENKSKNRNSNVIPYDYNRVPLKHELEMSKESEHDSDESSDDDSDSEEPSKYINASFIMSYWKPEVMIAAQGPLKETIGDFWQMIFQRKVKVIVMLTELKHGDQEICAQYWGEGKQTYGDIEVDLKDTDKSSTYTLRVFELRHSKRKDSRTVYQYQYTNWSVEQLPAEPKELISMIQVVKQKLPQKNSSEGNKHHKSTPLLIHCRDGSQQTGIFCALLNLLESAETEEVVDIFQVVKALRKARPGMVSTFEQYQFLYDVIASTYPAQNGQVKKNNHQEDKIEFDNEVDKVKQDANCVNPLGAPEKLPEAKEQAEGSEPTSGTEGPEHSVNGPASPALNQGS

[2] = molecular target: T2, Tyrosine-protein phosphatase non-receptor type 2 (Homo sapiens, UniProt P17706); assay: Inhibitory activity against T cell protein tyrosine phosphatase; format: cell-based
T2 sequence (P17706 whole entry): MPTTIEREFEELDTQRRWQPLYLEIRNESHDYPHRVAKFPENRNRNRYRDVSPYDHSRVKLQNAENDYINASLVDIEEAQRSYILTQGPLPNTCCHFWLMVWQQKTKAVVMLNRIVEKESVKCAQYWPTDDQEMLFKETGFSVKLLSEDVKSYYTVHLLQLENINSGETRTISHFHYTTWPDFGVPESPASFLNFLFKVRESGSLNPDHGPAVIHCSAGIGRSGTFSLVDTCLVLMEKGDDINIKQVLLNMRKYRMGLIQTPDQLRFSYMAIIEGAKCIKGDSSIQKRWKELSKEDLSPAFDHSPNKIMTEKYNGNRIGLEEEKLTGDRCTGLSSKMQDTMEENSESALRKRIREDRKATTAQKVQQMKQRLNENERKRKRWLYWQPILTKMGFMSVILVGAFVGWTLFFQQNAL

[3] = molecular target: T3, Tyrosine-protein phosphatase non-receptor type 1 (Homo sapiens, UniProt P18031); assay: Inhibitory activity against protein tyrosine phosphatase 1B (PTP1B) was determined in fluorescein diphosphate (FDP) assay
T3 sequence (P18031 whole entry): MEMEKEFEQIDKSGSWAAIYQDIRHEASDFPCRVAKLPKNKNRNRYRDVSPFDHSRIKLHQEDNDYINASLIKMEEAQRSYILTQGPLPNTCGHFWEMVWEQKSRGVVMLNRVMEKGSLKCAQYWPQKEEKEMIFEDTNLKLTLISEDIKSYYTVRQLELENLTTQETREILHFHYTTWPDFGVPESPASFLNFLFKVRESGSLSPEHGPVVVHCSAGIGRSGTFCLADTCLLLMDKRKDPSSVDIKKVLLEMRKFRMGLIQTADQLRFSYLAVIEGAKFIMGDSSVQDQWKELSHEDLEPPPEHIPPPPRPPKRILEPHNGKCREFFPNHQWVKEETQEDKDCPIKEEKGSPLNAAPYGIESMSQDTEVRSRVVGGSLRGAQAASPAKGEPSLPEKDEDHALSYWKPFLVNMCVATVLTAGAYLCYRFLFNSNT

[4] = molecular target: T3, Tyrosine-protein phosphatase non-receptor type 1; assay: Inhibitory activity against Protein tyrosine phosphatase 1B (PTP1B) over-expressed in intact Sf9 cell assay

| IC50 [1] [nM] | IC50 [2] [nM] | IC50 [3] [nM] | IC50 [4] [nM] | Structure (SMILES) |
| --- | --- | --- | --- | --- |
| 50000 | 8 | – | – | O=P(O)(O)C(F)(F)c1ccc(CC(Cc2ccc(C(F)(F)P(=O)(O)O)cc2)(c2ccc(F)c(F)c2)n2nnc3ccccc32)cc1 |
| 50000 | 290 | 240 | 1700 | O=C(OCc1ccccc1)C(Cc1ccc(C(F)(F)P(=O)(O)O)cc1)(c1ccccc1)n1nnc2ccccc21 (stereo unspecified) |
| 25000 | 4 | 5 | 160 | O=P(O)(O)C(F)(F)c1ccc(CC(Cc2ccc(C(F)(F)P(=O)(O)O)c(Br)c2)(c2ccccc2)n2nnc3ccccc32)cc1 (stereo unspecified) |
| 69000 | – | – | 1600 | O=P(O)(O)C(F)(F)c1ccc(CC(Cc2ccc(-c3ccccc3)cc2)(c2ccccc2)n2nnc3ccccc32)cc1 (stereo unspecified) |
| 50000 | – | – | 220 | Cc1ccc2cc(-c3ccc(CC(Cc4ccc(C(F)(F)P(=O)(O)O)cc4)(c4ccccc4)n4nnc5ccccc54)cc3)cc(P(=O)(O)O)c2n1 (stereo unspecified) |
| 50000 | 16 | 11 | 84 | COC(=O)c1ccc(C(Cc2ccc(C(F)(F)P(=O)(O)O)cc2)(Cc2ccc(C(F)(F)P(=O)(O)O)cc2)n2nnc3ccccc32)cc1 |
| 50000 | – | – | – | O=P(O)(O)c1cccc(-c2ccc(CC(Cc3ccc(C(F)(F)P(=O)(O)O)cc3)(c3ccccc3)n3nnc4ccccc43)cc2)c1 (stereo unspecified) |
| 50000 | 28 | 20 | 62 | O=P(O)(O)C(F)(F)c1ccc(CC(Cc2ccc(C(F)(F)P(=O)(O)O)cc2)(c2ccc3ccccc3n2)n2nnc3ccccc32)cc1 |
| 50000 | 10 | 16 | 120 | O=P(O)(O)C(F)(F)c1ccc(/C=C/CC(Cc2ccc(C(F)(F)P(=O)(O)O)cc2)(c2ccccc2)n2nnc3ccccc32)cc1 (stereo unspecified) |
| 50000 | 10 | – | 120 | O=P(O)(O)C(F)(F)c1ccc(CC(Cc2ccc(C(F)(F)P(=O)(O)O)cc2)(c2ccccc2)n2nnc3ccccc32)cc1 |
| 50000 | 85 | 74 | 370 | O=P(O)(O)C(F)(F)c1ccc(CC(Cc2ccc(-c3ccccc3-c3nn[nH]n3)cc2)(c2ccccc2)n2nnc3ccccc32)cc1 (stereo unspecified) |
| 50000 | 49 | 49 | 460 | O=P(O)(O)C(F)(F)c1ccc(CC(C/C=C/c2ccccc2)(c2ccccc2)n2nnc3ccccc32)cc1 (stereo unspecified) |
| 7200 | 16 | 32 | 1200 | O=P(O)(O)C(F)(F)c1ccc(CC(Cc2ccc(C(F)(F)P(=O)(O)O)cc2)(c2nnn[nH]2)n2nnc3ccccc32)cc1 |
| 11000 | 20 | 18 | 88 | O=P(O)(O)C(F)(F)c1ccc(CC(Cc2ccc(C(F)(F)P(=O)(O)O)cc2)(c2nc3ccccc3s2)n2nnc3ccccc32)cc1 |
| 50000 | 82 | 69 | 930 | NS(=O)(=O)c1ccccc1-c1ccc(CC(Cc2ccc(C(F)(F)P(=O)(O)O)cc2)(c2ccccc2)n2nnc3ccccc32)cc1 (stereo unspecified) |
| 30000 | 72 | 46 | 650 | O=P(O)(O)C(F)(F)c1ccc(CC(CCCc2ccccc2)(c2ccccc2)n2nnc3ccccc32)cc1 (stereo unspecified) |
| 17000 | 92 | 89 | 1600 | O=P(O)(O)C(F)(F)c1ccc(CC(Cc2ccc(Br)cc2)(c2ccccc2)n2nnc3ccccc32)cc1 (stereo unspecified) |
| > 50000 | 7260 | 8040 | – | O=P(O)(O)C(F)(F)c1ccc(CC(c2ccccc2)n2nnc3ccccc32)cc1 (stereo unspecified) |
| 64000 | 62 | 98 | 4070 | O=P(O)(O)C(F)(F)c1ccc(CC(Cc2ccc(OCc3ccccc3)cc2)(c2ccccc2)n2nnc3ccccc32)cc1 (stereo unspecified) |
| 50000 | 18 | 19 | 190 | O=P(O)(O)C(F)(F)c1ccc(CC(Cc2ccc(C(F)(F)P(=O)(O)O)cc2)(c2nc(-c3ccccc3)cs2)n2nnc3ccccc32)cc1 |

| Structure (SMILES) | IC50 [1] [nM] | IC50 [2] [nM] | IC50 [3] [nM] | IC50 [4] [nM] |
| --- | --- | --- | --- | --- |
| COC(CC(C)C)c1ccc2cc(-c3ccc(CC(Cc4ccc(C(F)(F)P(=O)(O)O)cc4)(c4ccccc4)n4nnc5ccccc54)cc3)cc(P(=O)(O)O)c2n1 (stereo in doubt; 21a) | 50000 | – | – | – |
| COC(CC(C)C)c1ccc2cc(-c3ccc(CC(Cc4ccc(C(F)(F)P(=O)(O)O)cc4)(c4ccccc4)n4nnc5ccccc54)cc3)cc(P(=O)(O)O)c2n1 (stereo in doubt; 21b) | 50000 | 41 | – | – |
| COC(CC(C)C)c1ccc2cc(-c3ccc(CC(Cc4ccc(C(F)(F)P(=O)(O)O)cc4)(c4ccccc4)n4nnc5ccccc54)cc3)cc(P(=O)(O)O)c2n1 (stereo in doubt; 21c) | 50000 | 1130 | – | – |
| COC(CC(C)C)c1ccc2cc(-c3ccc(CC(Cc4ccc(C(F)(F)P(=O)(O)O)cc4)(c4ccccc4)n4nnc5ccccc54)cc3)cc(P(=O)(O)O)c2n1 (stereo in doubt; 21d) | 32000 | 930 | – | – |
